Assay results published in patent publication US8440710B2, “HSL inhibitors useful in the treatment of diabetes” (Hoffmann-La Roche Inc., priority 2009, dated 2013).

Target: T1, human HSL (Homo sapiens, UniProt Q05469)
T1 construct: generate a full length human HSL ORF with a 3′-His6 tag; made in house; host or cells: High 5 insect cells (baculovirus, pFast-BAC)
T1 sequence (Q05469 1-1076): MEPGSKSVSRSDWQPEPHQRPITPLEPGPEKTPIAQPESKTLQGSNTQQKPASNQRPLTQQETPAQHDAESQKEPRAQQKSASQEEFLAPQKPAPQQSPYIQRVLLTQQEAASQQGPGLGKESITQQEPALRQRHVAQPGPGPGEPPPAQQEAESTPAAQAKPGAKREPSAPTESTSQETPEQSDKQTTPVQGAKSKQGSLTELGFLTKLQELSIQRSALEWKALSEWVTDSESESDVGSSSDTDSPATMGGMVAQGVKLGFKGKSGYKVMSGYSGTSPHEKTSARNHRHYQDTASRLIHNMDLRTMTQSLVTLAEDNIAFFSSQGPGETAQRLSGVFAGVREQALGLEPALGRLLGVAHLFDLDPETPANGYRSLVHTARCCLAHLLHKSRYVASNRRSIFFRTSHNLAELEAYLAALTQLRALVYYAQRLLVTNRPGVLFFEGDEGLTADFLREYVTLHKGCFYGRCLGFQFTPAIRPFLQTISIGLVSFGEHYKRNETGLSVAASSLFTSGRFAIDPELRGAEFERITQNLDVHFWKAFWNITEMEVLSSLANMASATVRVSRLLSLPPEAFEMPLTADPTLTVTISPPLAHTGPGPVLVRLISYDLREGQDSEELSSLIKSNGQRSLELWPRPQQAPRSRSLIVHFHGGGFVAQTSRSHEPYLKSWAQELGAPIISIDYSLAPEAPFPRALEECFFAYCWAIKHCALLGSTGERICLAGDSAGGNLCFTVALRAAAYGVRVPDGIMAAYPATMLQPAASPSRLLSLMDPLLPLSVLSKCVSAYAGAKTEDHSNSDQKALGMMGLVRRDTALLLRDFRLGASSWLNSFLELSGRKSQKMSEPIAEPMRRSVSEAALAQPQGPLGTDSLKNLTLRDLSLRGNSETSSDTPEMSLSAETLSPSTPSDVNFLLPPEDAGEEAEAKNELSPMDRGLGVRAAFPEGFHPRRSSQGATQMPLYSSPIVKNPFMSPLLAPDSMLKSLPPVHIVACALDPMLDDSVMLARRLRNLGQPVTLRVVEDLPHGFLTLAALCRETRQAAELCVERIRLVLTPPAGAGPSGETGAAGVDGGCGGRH
Assay: Human Hormone-Sensitive Lipase (HSL) enzyme inhibition assay (colorimetric, DMPT substrate)
Type: biochemical
Details: human full length HSL-His6, 2,3-dimercapto-1-propanol tributyrate substrate, 37° C. 20 minutes, absorbance at 405 nm; read-out: HSL hum IC50
Experimental: Production of Human Full Length Hormone Sensitive Lipase-His^6:
1) Cloning: cDNA was prepared from commercial human brain polyA+ RNA and used as a template in overlapping PCR to generate a full length human HSL ORF with a 3′-His6 tag. This full length insert was cloned into the pFast-BAC vector and the DNA-sequence of several single clones was verified. DNA from a correct full length clone with the 3′His6 tag was used to transform the E. coli strain DH10BAC. Resulting bacmid DNA was used to generate a titered baculovirus stock for protein generation. The sequence of the encoded HSL conforms to Swissprot entry Q05469, with the additional C-terminal His6-tag. 2) Protein purification: Culture: 5.5 L, High 5 cells expressing human full length HSL-His^6, 48 hr., containing 25 μM E-64. Cell count: […], 90% viable. Cells were thawed. On ice, cells were suspended in Base Buffer containing 10% glycerol, 25 mM Tris-Cl, 300 mM NaCl, 10 mM imidazole, 10 mM 2-mercaptoethanol, 2 μg pepstatin/ml, 2 μg leupeptin/ml, 2 μg antipain/ml, pH 8.0 at 4° C. in a final volume of 475 ml with 3.75×10^7 cells/ml. […] was done at 3×30 sec., Lubrol PX was added to 0.2% final concentration followed by stirring for 15 min. at 4° C. and centrifugation at 25 k×g, 60 min., 4° C. Soluble proteins were mixed with 60 ml of pre-washed and equilibrated Ni-NTA Agarose (Qiagen 30210) followed by tumbling end-over-end, 45 min., 4° C., centrifugation 1000 rpm 5 min and letting resin settle 5 min. Supernatant was removed, the resin washed in the centrifuge vessel using 5 volumes of Base Buffer containing 0.2% Lubrol PX. Centrifugation was done again, then the supernatant discarded. The resin was poured onto a 0.8 μm membrane in a disposable filter unit (Nalge 450-0080), and washed with 5 volumes of Base Buffer containing 0.2% Lubrol PX. It was then washed with 30 volumes of Base Buffer containing 60 mM imidazole pH 7.5 at 4° C. The protein was eluated with 5 volumes of 25 mM Tris-Cl, 300 mM NaCl, 200 mM imidazole, 10 mM 2-mercaptoethanol, pH 7.5 at 4° C. by tumbling resin with buffer end-over-end, 30 min., 4° C. The resin was captured on a 0.2 μm membrane disposable filter unit (Millipore SCGP U02 RE) and the eluate collected in the reservoir. The eluate was concentrated using a 30 k MWCO centrifugal filter device (Sartorius Vivascience Vivacell 100, VC1022), to 20 ml. It was then dialyzed overnight at 4° C., two times against 2 L of 10% glycerol, 25 mM Tris-Cl, 300 mM NaCl, 0.2 mM EDTA, 0.2 mM DTT, pH 7.5 at 4° C. The protein was filtered using a 0.22 μm disposable filter unit (Millipore SCGP00525). The protein concentration was calculated from absorbance at 280 nm, using 280=0.67 cm-1 mg-1. Yield was 235 mg, total. The protein was stored at −80° C. Human Hormone-Sensitive Lipase (HSL) Enzyme Inhibition Assay:
HSL enzyme activity was measured by a colorimetric assay using 2,3-dimercapto-1-propanol tributyrate (Aldrich, St. Louis, Mo.) as a substrate. Typically, 1.5 mM 2,3-dimercapto-1-propanol tributyrate (DMPT) in 100 mM MOPS, pH 7.2, 0.2 mg/ml fatty acid-free BSA was prepared by sonication at 4° C. to homogenous suspension. Test compounds (2 mM stock in DMSO) were diluted 3 fold in series in DMSO. Compound solutions were diluted 24 fold in 1.5 mM DMPT containing solution and 18 ul per well was added to 384-well microplates (Corning Costar). Twelve microliters per well of human HSL (15 ug/ml) was added and the reaction mixture was incubated at 37° C. for 20 minutes. Six microliters of 12 mM dithio-bis-(2-nitrobenzoic acid) (DTNB) in DMSO plus 1.2% SDS and 0.6% Triton X-100 were added and the mixture was incubated at room temperature for 15 minutes. Product production was monitored by reading absorbance at 405 nm on an Envision Reader (PerkinElmer Life and Analytical Sciences, Shelton, Conn.).

Row | Compound | IC50
1 | O=C1N(c2ccc(C3CC3)cc2)CC[C@]12CC[C@H](O)CC2 [Example 39, (5α,8α)-2-(4-Cyclopropyl-phenyl)-8-hydroxy-2-aza-spiro[4.5]decan-1-one] | 560 nM
2 | COc1ccc(N2CC[C@]3(CC[C@H](OCc4ccccc4)CC3)C2=O)cc1 [Example 40, (5α,8α)-8-Benzyloxy-2-(4-methoxy-phenyl)-2-aza-spiro[4.5]decan-1-one] | 4590 nM
3 | CCO[C@H]1CC[C@]2(CCN(c3ccc(OC(F)(F)F)cc3)C2=O)CC1 [Example 41, (5α,8α)-8-Ethoxy-2-(4-trifluoromethoxy-phenyl)-2-aza-spiro[4.5]decan-1-one] | 390 nM
4 | CCCO[C@H]1CC[C@]2(CCN(c3ccc(OC(F)(F)F)cc3)C2=O)CC1 [Example 42, (5α,8α)-8-Propoxy-2-(4-trifluoromethoxy-phenyl)-2-aza-spiro[4.5]decan-1-one] | 320 nM
5 | CCc1ccc(N2CC[C@]3(CC[C@H](OCc4ccccc4)CC3)C2=O)cc1 [Example 43, (5α,8α)-8-Benzyloxy-2-(4-ethyl-phenyl)-2-aza-spiro[4.5]decan-1-one] | 740 nM
6 | CCCNC(=O)O[C@H]1CC[C@]2(CCN(c3ccc(CC)cc3)C2=O)CC1 [Example 44, Propyl-carbamic acid [(5α,8α)-2-(4-ethyl-phenyl)-1-oxo-2-aza-spiro[4.5]dec-8-yl]ester] | 1480 nM
7 | CCc1ccc(N2CC[C@]3(CC[C@H](OC(=O)NCc4cccc(F)c4)CC3)C2=O)cc1 [Example 45, (3-Fluoro-benzyl)-carbamic acid [(5α,8α)-2-(4-ethyl-phenyl)-1-oxo-2-aza-spiro[4.5]dec-8-yl]ester] | 1110 nM
8 | COc1ccc(N2CC[C@]3(CC[C@H](Oc4ccccc4)CC3)C2=O)cc1 [Example 46, (5α,8α)-2-(4-Methoxy-phenyl)-8-phenoxy-2-aza-spiro[4.5]decan-1-one] | 4240 nM
9 | COc1ccc(N2CCC3(CC=CCC3)C2=O)cc1 (centres unmarked) [Example 47, 2-(4-Methoxy-phenyl)-2-aza-spiro[4.5]dec-7-en-1-one] | 6750 nM
10 | COc1ccc(N2CC[C@]3(CC[C@@H](Oc4ccccc4)CC3)C2=O)cc1 [Example 48, (5α,8β)-2-(4-Methoxy-phenyl)-8-phenoxy-2-aza-spiro[4.5]decan-1-one] | 1710 nM
11 | O=C1N(c2ccc(OC(F)(F)F)cc2)CC[C@]12CC=CCC2 [Example 50, 2-(4-Trifluoromethoxy-phenyl)-2-aza-spiro[4.5]dec-7-en-1-one] | 200 nM
12 | O=C1N(c2ccc(OC(F)(F)F)cc2)CC[C@]12CC[C@@H]([S+]([O-])c1ccccc1)CC2 (stereo partly drawn) [Example 51, (5α,8β)-8-Benzenesulfinyl-2-(4-trifluoromethoxy-phenyl)-2-aza-spiro[4.5]decan-1-one] | 20 nM
13 | O=C1N(c2ccc(OC(F)(F)F)cc2)CC[C@]12CC[C@H](Sc1ccccc1)CC2 [Example 52, (5α,8α)-8-Phenylsulfanyl-2-(4-trifluoromethoxy-phenyl)-2-aza-spiro[4.5]decan-1-one] | 2270 nM
14 | O=C1N(c2ccc(OC(F)(F)F)cc2)CC[C@]12CC[C@@H](S(=O)(=O)c1ccccc1)CC2 [Example 53, (5α,8β)-8-Benzenesulfonyl-2-(4-trifluoromethoxy-phenyl)-2-aza-spiro[4.5]decan-1-one] | 30 nM
15 | O=C1CCC2(CC1)CCN(c1ccc(OC(F)(F)F)cc1)C2=O [Example 54, 2-(4-Trifluoromethoxy-phenyl)-2-aza-spiro[4.5]decane-1,8-dione] | 640 nM
16 | CCC[C@]1(O)CC[C@]2(CCN(c3ccc(OC(F)(F)F)cc3)C2=O)CC1 [Example 55, (5α,8α)-8-Hydroxy-8-propyl-2-(4-trifluoromethoxy-phenyl)-2-aza-spiro[4.5]decan-1-one] | 20 nM
17 | CCC[C@]1(O)CC[C@@]2(CCN(c3ccc(OC(F)(F)F)cc3)C2=O)CC1 [Example 56, (5α,8β)-8-Hydroxy-8-propyl-2-(4-trifluoromethoxy-phenyl)-2-aza-spiro[4.5]decan-1-one] | 570 nM
18 | C[C@]1(O)CC[C@]2(CCN(c3ccc(OC(F)(F)F)cc3)C2=O)CC1 [Example 57, (5α,8α)-8-Hydroxy-8-methyl-2-(4-trifluoromethoxy-phenyl)-2-aza-spiro[4.5]decan-1-one] | 70 nM
19 | C[C@]1(O)CC[C@@]2(CCN(c3ccc(OC(F)(F)F)cc3)C2=O)CC1 [Example 58, (5α,8β)-8-Hydroxy-8-methyl-2-(4-trifluoromethoxy-phenyl)-2-aza-spiro[4.5]decan-1-one] | 950 nM
20 | CC1=CC[C@@]2(CC1)CCN(c1ccc(OC(F)(F)F)cc1)C2=O [Example 59, 8-Methyl-2-(4-trifluoromethoxy-phenyl)-2-aza-spiro[4.5]dec-7-en-1-one] | 1600 nM
21 | CC[C@]1(O)CC[C@]2(CCN(c3ccc(OC(F)(F)F)cc3)C2=O)CC1 [Example 60, (5α,8α)-8-Ethyl-8-hydroxy-2-(4-trifluoromethoxy-phenyl)-2-aza-spiro[4.5]decan-1-one] | 30 nM
22 | CC[C@]1(O)CC[C@@]2(CCN(c3ccc(OC(F)(F)F)cc3)C2=O)CC1 [Example 61, (5α,8β)-8-Ethyl-8-hydroxy-2-(4-trifluoromethoxy-phenyl)-2-aza-spiro[4.5]decan-1-one] | 2090 nM
23 | O=C1N(c2ccc(OC(F)(F)F)cc2)CC[C@]12CC[C@@](O)(Cc1ccccc1)CC2 [Example 62, (5α,8α)-8-Benzyl-8-hydroxy-2-(4-trifluoromethoxy-phenyl)-2-aza-spiro[4.5]decan-1-one] | 20 nM
